The source made the active and inactive calls.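 Rule for the calls: active = compounds raising the area under the GFP-over-time curve by more than 15% versus untreated cells, meaning slower Sic1 breakdown; inactive = the rest.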 Residues, ends and D or L forms follow the SMILES beside them. *: point of attachment. Cbz = O=C(OCc1ccccc1)*
Tested on: S. cerevisiae Cln2-overexpressing, Sic1-GFP degradation, flow cytometry
Assay: Sic1-GFP degradation in Cln2-overexpressing yeast, mechanism study for 26S proteasome disassembly project, secondary assay, flow cytometry, S. cerevisiae (AID 1314)

Row | SMILES | outcome
1 | CC(=O)N1C(=O)C(=C2C=C(C)OC(C)=C2)c2ccccc21 | active; degradation inhibitor
2 | CC(C)C[C@@H](C=O)NC(=O)[C@H](CC(C)C)NC(=O)[C@H](CC(C)C)NC(=O)OCc1ccccc1 (Cbz-Leu-Leu-Leu-aldehyde) | active; degradation inhibitor

— PubChem BioAssay AID1314 (NMMLSC, 2008)
